# Square brackets hold non-standard residues; d marks the D form. Peptide text beside a SMILES is read from it. * marks the point of attachment. Tyr(Nα,Nα-allyl2) = C=CCN(CC=C)[C@@H](Cc1ccc(O)cc1)C(=O)*; Aib = CC(C)(N)C(=O)O
# Experiments:
# μ opioid receptor = target: T1, μ opioid receptor (Mus musculus, UniProt P42866); test: Mouse tail flick antinociception, antagonism of mu agonist; assay type: in vivo; conditions: BNTX 6.25 pmol/i.c.v./mouse
# T1 construct: from tissue; host or cells: live mouse (BNTX i.c.v.)
# Protocol: (§1) The antagonist effect of BNTX on antinociception was evaluated in mice using the tail flick assay, in accord with the procedure of A. E. Takemor, et al., J. Pharmacol. Exp. Ther., 243, 91 (1987). At least three groups of ten mice were used to generate dose-response curves. A mouse was regarded as positive for antinociception if the latency to flick its tail was more than the control latency plus 3 S.D. of the mean reaction time of the group. The reaction times were determined at the peak time for antinociception after administration of various agonists. Intra-cerebroventricular (i.c.v.) injections were made in a volume of 5 μl by the method of T. J. Haley et al., Br. J. Pharmacol., 12, 12 (1957).
# (§2) On Table III, the potencies are expressed as ED50 ratios, which represent the ED50 of the standard agonist administered subcutaneously in the presence of BNTX (6.25 pmoL/i.c.v./mouse), divided by the ED50 of the standard agonist.
# δ1 receptors = assay type: binding; conditions: guinea pig brain membranes
# Protocol: Therefore, a better assessment of the δ subtype selectivity can be obtained from binding of brain membranes and from antagonism studies in mice. The binding of BNTX to guinea pig brain membranes was determined using the general method of L. L. Werling et al., J. Pharmacol. Exp. Ther., 233, 722 (1985), as modified by A. E. Takemori et al., J. Pharmacol. Exp. Ther., 246, 255 (1988). The radio-ligands employed were [^3 H]DPDPE ([D-Pen ^2, D-Pen^5 ] enkephalin) for δ1 receptors, [^3 H]DSLET([D-Ser^2 -Leu^5 ]enkephalin-Thr^6) for δ^2 receptors, [3H]DAMGO for μ receptors and U69593(trans-(+)-3,4-dichloro-N-methyl-N-[2-(1-pyrididinyl)cyclohexyl]benzeneacetamide) for κ receptors.
# [1] = target: T2, delta opioid receptor (δ; printed δ1 for DADLE in Table III) (Mus musculus, UniProt P32300); test: Mouse vas deferens (MVD) smooth muscle, antagonism of DADLE; assay type: cell-based; conditions: data of Table II, MVD/GPI
# T2 construct: Both vasa deferentia were dissected out of mice; from tissue; host or cells: mouse vas deferens
# Protocol: This assay was performed according to the description by G. Henderson et al., Brit. J. Pharmacol., 46, 764 (1972). […] The organ bath was maintained at 37° C.
# Concentration-response curves were obtained in the absence (control) and the presence of the antagonist are expressed as IC50 values. […] Therefore, a high IC50 ratio represents a correspondingly high degree of antagonism at a particular receptor. […] Therefore, a low Ke represents a correspondingly high degree of binding at a particular receptor.
# κ opioid receptor = target: T3, κ opioid receptor (Mus musculus, UniProt P33534); test: Mouse tail flick antinociception, antagonism of U50488H (κ agonist); assay type: in vivo; conditions: BNTX 6.25 pmol/i.c.v./mouse
# T3 construct: from tissue; host or cells: live mouse (BNTX i.c.v.)
# Protocol: as §1, §2
# δ2 opioid receptor = target: T4, δ2 opioid receptor (Mus musculus, UniProt P32300); test: Mouse tail flick antinociception, antagonism of DSLET; assay type: in vivo; conditions: BNTX 6.25 pmol/i.c.v./mouse
# T4 construct: from tissue; host or cells: live mouse (BNTX i.c.v.)
# Protocol: as §1, §2
# ethanol drinking [2] = conditions: in vivo; cited from earlier work
# ethanol drinking [3] = conditions: rats bred for high voluntary ethanol drinking; application Ser. No. 07/750,109; cited from earlier work
# ethanol intake = conditions: rat model of alcoholism; cited from earlier work
# [4] = tested on: alcohol relapse in recovering alcoholics; conditions: cited from earlier work
# T1 sequence (P42866 whole entry): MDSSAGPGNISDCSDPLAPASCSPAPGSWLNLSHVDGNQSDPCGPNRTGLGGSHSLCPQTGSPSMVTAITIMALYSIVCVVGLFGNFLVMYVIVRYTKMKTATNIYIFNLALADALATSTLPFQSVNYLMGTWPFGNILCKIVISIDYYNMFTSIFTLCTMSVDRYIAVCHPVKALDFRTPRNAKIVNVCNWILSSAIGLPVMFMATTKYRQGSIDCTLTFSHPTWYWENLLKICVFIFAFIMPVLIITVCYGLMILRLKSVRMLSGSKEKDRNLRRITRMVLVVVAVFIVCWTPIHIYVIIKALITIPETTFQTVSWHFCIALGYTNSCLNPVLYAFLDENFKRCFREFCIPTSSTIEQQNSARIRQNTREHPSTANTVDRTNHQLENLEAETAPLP
# T3 sequence (P33534 whole entry): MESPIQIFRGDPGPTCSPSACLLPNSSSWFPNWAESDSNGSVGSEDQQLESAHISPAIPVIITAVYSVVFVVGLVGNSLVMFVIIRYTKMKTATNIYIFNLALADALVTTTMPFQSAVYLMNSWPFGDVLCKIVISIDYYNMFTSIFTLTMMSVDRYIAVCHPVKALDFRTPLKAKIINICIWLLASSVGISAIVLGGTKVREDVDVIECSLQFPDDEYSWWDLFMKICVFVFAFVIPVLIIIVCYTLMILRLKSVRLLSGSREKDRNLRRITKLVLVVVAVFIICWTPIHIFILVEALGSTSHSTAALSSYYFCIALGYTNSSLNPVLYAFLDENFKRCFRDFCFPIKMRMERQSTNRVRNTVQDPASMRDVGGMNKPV
# T4 sequence (P32300 whole entry): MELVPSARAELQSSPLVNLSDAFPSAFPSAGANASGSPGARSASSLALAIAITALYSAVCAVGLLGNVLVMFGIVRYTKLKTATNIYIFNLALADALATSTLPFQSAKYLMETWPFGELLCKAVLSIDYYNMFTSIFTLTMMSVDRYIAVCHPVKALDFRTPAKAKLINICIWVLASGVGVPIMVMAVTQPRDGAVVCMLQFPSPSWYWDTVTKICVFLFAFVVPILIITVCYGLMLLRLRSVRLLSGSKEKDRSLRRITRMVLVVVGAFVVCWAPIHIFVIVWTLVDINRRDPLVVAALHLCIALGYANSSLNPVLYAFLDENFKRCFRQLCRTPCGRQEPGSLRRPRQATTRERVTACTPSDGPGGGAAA
# T2 sequence (P32300 whole entry): as above
smiles,measurement,setting,value
"O=C1C(=Cc2ccccc2)C[C@@]2(O)[C@H]3Cc4ccc(O)c5c4[C@@]2(CCN3CC2CC2)[C@H]1O5 [BNTX, 7-Benzylidene-7-dehydronaltrexone]","shift of dose-response curve, morphine",μ opioid receptor; words,not shifted significantly
same,"ED50 Ratio (""Potency Ratio""), DAMGO (μ)",μ opioid receptor; ED50 of DAMGO (so in the source) in presence of BNTX / ED50 of agonist,0.88
same,"selectivity (binding, words)",δ1 receptors,highly selective for δ1 receptor sites
same,"selectivity (smooth muscle, words)",[1],δ-selective antagonist
same,"shift of dose-response curve, U50488H",κ opioid receptor; words,not shifted significantly
same,"ED50 Ratio (""Potency Ratio""), U50488H (κ)",κ opioid receptor; ED50 of U50488H in presence of BNTX / ED50 of agonist,1.2
same,"shift of dose-response curve, DSLET",δ2 opioid receptor; words,not shifted significantly
same,"ED50 Ratio (""Potency Ratio""), DSLET (δ2)",δ2 opioid receptor; ED50 of DSLET in presence of BNTX / ED50 of agonist,0.91
"C=CCN(CC=C)[C@@H](Cc1ccc(O)cc1)C(=O)NC(C)(C)C(=O)NC(C)(C)C(=O)N[C@@H](Cc1ccccc1)C(=O)N[C@@H](CC(C)C)C(=O)O [ICI 174864, N,N-diallyl-Tyr-Aib-Aib-Phe-Leu-OH] ({Tyr(Nα,Nα-allyl2)}-[Aib][Aib]FL-OH)",duration of action,ethanol drinking [2],very short duration of action
same,ethanol drinking,ethanol drinking [2],strongly inhibits ethanol drinking
Oc1ccc2c3c1O[C@H]1c4oc5ccccc5c4C[C@@]4(O)[C@@H](C2)N(CC2CC2)CC[C@]314 [NTB],suppression of ethanol drinking / water intake,ethanol drinking [3],unexpectedly prolonged suppression of ethanol drinking without altering water intake
Oc1ccc2c3c1O[C@H]1c4[nH]c5ccccc5c4C[C@@]4(O)[C@@H](C2)N(CC2CC2)CC[C@]314 [NTI],suppression of ethanol drinking / water intake,ethanol drinking [3],unexpectedly prolonged suppression of ethanol drinking without altering water intake
"C=CCN1CC[C@]23c4c5ccc(O)c4O[C@H]2C(=O)CC[C@@]3(O)[C@H]1C5 [Naloxone, naloxone]",ethanol and water intake,ethanol intake,suppress ethanol but not water intake
"O=C1CC[C@@]2(O)[C@H]3Cc4ccc(O)c5c4[C@@]2(CCN3CC2CC2)[C@H]1O5 [Naltrexone, naltrexone]",incidence of relapse in recovering alcoholics,[4],reduce the incidence of relapse in recovering alcoholics
